# Test results published in publication PMC7549094 (Journal of Medicinal Chemistry, 2020).
# Legend:
# hr GHS = hr GHS (Homo sapiens, UniProt Q92847); test: receptor profile (Table S4); type: binding
# hr H1 = hr H1 (Homo sapiens, UniProt P35367); test: receptor profile (Table S4); type: binding
# hr Al2A ag = target: T1, hr Al2A ag (Homo sapiens, UniProt P08913); test: receptor profile (Table S4); type: biochemical
# T1 sequence (P08913 1-465): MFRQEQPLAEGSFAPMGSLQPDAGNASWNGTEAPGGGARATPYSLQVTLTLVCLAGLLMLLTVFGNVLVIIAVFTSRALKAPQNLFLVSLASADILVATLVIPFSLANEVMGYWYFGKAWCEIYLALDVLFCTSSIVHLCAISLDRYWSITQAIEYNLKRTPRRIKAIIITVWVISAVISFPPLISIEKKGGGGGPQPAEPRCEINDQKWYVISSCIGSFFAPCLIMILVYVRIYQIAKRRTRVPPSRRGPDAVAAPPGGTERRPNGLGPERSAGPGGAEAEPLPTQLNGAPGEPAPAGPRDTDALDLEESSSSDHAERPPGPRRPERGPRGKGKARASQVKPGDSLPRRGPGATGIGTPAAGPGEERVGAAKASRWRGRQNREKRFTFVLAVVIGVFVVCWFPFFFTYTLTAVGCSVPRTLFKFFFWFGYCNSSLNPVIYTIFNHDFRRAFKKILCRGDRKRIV
# hr 5-HT2B ag = hr 5-HT2B ag (Homo sapiens, UniProt P41595); test: receptor profile (Table S4); type: biochemical
# Chain of hr 5-HT2B ag (P41595 whole entry): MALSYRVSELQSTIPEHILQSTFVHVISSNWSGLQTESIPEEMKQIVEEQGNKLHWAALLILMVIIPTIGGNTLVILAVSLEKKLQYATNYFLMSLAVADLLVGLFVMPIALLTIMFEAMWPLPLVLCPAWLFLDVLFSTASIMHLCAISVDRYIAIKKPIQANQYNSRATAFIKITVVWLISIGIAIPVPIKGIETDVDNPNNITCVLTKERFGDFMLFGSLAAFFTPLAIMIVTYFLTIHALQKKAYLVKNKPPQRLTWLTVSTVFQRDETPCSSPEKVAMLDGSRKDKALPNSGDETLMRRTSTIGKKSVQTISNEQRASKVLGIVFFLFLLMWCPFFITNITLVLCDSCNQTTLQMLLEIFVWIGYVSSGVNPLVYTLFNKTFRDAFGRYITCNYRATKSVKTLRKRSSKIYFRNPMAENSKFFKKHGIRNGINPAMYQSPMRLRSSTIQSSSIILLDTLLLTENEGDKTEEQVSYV
# [1] = metabolite profile in human hepatocytes; type: in vitro ADME; conditions: 10 μM of 1 for 4 h, UV 250 nm, normalized to largest peak
# rr AR ag = target: T2, rr AR ag (Rattus norvegicus, UniProt P15207); test: receptor profile (Table S4); type: biochemical
# T2 sequence (P15207 1-902): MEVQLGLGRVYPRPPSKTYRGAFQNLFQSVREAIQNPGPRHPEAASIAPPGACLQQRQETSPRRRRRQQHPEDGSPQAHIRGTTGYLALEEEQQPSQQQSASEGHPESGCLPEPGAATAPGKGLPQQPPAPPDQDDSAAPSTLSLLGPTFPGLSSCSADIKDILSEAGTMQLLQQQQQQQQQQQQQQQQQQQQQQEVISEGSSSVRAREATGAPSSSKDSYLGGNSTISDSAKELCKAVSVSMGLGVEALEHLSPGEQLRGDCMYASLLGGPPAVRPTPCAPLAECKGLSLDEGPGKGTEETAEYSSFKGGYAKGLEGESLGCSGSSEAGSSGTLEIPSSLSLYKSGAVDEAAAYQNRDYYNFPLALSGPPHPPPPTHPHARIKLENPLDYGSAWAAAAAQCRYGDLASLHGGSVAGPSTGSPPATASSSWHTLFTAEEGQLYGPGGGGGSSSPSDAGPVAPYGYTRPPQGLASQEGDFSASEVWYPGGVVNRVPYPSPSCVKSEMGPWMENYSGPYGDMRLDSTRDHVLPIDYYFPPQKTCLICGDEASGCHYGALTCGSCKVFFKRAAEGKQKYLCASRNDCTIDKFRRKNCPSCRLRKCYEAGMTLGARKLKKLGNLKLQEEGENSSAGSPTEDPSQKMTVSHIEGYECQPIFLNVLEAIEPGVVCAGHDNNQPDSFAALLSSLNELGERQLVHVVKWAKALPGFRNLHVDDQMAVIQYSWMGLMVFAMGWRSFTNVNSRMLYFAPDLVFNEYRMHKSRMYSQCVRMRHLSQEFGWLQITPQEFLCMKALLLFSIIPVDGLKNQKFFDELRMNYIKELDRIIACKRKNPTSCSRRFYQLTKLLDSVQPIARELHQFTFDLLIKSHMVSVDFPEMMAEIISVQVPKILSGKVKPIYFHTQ
# hr D1 ag = hr D1 ag (Homo sapiens, UniProt P21728); test: receptor profile (Table S4); type: biochemical
# Chain of hr D1 ag (P21728 whole entry): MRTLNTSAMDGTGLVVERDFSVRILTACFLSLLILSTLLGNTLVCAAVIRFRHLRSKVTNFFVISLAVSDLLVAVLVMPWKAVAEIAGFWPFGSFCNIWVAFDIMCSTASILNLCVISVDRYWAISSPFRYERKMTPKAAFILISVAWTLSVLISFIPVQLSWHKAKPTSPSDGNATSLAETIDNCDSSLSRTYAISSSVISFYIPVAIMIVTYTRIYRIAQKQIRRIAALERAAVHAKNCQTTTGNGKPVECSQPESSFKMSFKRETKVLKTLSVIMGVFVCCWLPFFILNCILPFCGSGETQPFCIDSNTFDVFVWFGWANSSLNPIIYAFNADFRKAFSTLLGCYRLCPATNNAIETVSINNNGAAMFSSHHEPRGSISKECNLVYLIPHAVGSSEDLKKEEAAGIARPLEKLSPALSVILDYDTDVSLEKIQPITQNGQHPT
# [2] = in vivo micronucleus (MNT) study in rat
# hr D1 antag = hr D1 antag (Homo sapiens, UniProt P21728); test: receptor profile (Table S4); type: biochemical
# Chain of hr D1 antag (P21728 whole entry): as above
# hERG = hERG (Homo sapiens, UniProt Q12809); test: receptor profile (Table S4)
# Chain of hERG (Q12809 whole entry): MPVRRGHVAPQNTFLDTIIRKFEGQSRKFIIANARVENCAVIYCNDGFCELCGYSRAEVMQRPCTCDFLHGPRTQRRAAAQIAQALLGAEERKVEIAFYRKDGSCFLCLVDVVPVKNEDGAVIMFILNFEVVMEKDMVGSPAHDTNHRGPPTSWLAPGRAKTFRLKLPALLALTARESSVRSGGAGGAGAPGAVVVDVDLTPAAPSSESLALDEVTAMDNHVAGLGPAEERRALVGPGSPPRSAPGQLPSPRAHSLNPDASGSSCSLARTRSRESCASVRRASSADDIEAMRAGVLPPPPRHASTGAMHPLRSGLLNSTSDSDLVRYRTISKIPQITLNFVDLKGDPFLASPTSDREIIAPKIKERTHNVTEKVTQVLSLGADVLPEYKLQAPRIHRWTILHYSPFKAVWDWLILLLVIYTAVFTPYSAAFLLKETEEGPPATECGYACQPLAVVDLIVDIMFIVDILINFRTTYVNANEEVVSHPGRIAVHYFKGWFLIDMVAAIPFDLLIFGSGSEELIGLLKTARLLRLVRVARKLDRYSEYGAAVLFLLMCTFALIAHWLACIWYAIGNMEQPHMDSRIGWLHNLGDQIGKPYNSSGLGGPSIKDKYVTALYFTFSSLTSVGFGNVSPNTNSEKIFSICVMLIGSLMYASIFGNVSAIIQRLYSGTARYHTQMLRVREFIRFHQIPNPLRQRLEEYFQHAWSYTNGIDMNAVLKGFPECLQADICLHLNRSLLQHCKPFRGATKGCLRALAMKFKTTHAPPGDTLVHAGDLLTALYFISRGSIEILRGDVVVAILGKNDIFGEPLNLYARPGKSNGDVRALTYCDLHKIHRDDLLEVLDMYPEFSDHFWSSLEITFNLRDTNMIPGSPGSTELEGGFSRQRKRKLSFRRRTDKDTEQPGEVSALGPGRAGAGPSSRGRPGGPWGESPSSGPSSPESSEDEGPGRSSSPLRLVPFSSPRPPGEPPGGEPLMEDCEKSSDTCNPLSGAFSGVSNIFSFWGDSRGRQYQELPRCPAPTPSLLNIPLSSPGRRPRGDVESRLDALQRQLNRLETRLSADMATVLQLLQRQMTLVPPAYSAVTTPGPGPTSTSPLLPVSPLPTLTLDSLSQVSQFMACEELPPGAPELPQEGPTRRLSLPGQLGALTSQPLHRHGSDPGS
# hr OpD = hr OpD (Homo sapiens, UniProt P41143); test: receptor profile (Table S4); type: binding
# Chain of hr OpD (P41143 whole entry): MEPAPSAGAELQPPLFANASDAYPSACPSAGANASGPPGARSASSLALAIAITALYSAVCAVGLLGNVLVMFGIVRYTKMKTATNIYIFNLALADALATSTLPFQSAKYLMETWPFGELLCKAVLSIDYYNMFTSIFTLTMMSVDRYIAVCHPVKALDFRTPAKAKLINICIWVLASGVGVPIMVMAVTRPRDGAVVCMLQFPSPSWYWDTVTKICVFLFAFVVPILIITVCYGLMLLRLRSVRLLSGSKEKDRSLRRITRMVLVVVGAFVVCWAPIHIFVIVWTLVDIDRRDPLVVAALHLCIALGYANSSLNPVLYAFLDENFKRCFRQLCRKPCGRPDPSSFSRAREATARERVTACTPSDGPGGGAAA
# hr Alpha2B = target: T3, hr Alpha2B (Homo sapiens, UniProt P18089); test: receptor profile (Table S4); type: binding
# T3 sequence (P18089 1-450): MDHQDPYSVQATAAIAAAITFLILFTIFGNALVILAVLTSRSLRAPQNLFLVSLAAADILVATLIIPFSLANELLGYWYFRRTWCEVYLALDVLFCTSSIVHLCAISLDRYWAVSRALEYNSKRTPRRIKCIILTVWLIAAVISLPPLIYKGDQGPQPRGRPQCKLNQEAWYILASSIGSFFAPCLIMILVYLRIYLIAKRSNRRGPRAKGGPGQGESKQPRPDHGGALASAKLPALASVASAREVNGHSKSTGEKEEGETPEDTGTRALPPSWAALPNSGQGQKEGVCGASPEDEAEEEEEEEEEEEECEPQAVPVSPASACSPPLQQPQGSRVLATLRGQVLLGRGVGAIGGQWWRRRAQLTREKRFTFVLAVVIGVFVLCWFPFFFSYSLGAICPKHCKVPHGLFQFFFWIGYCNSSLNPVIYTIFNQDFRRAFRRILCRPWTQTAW
# Chain of hr GHS (Q92847 whole entry): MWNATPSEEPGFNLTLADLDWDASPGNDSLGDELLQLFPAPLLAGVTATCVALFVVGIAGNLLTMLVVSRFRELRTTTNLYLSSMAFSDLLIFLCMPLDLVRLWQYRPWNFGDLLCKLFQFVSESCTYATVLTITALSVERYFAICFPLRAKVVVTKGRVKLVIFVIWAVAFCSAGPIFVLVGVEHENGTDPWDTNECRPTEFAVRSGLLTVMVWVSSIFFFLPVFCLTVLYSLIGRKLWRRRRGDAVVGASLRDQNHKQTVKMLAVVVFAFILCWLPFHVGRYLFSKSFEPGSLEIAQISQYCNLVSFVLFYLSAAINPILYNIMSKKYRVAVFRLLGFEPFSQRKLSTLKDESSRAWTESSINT
# Chain of hr H1 (P35367 whole entry): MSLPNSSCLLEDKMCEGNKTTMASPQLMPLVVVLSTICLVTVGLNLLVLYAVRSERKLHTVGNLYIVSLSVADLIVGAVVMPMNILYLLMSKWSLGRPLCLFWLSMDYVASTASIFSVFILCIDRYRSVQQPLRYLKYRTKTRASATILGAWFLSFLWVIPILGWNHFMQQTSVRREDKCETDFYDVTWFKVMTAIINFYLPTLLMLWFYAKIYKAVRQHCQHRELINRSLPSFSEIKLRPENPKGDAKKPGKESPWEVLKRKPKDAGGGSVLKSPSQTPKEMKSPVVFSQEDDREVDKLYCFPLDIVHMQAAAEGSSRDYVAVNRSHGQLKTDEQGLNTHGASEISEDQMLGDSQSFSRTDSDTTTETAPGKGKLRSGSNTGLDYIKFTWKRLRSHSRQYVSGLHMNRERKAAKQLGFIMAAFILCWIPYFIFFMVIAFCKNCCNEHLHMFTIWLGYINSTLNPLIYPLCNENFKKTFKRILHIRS
compound,measurement,setting,value
"Cc1nc(C)c(C(=O)Nc2ccc(F)c(-c3nc4ncc(-c5ncccc5C)cn4n3)c2)o1 [compound 1, N-(4-Fluoro-3-(6-(3-methylpyridin-2-yl)-[1,2,4]triazolo[1,5-a]pyrimidin-2-yl)phenyl)-2,4-dimethyloxazole-5-carboxamide]",EC50/IC50,hr GHS; hr GHS,> 30 µM
same,inhibition at 10 µM,hr GHS; read-out: % inh/act @ 10 µM,12%
same,inhibition at 30 µM,hr GHS; read-out: % inh/act @ 30 µM,12%
same,EC50/IC50,hr H1; hr H1,> 30 µM
same,inhibition at 10 µM,hr H1; read-out: % inh/act @ 10 µM,10%
same,inhibition at 30 µM,hr H1; read-out: % inh/act @ 30 µM,24%
same,EC50/IC50,hr Al2A ag; hr Al2A ag,> 30 µM
same,inhibition at 10 µM,hr Al2A ag; read-out: % inh/act @ 10 µM,0%
same,inhibition at 30 µM,hr Al2A ag; read-out: % inh/act @ 30 µM,0%
same,EC50/IC50,hr 5-HT2B ag; hr 5-HT2B ag,> 30 µM
same,inhibition at 10 µM,hr 5-HT2B ag; read-out: % inh/act @ 10 µM,-6%
same,inhibition at 30 µM,hr 5-HT2B ag; read-out: % inh/act @ 30 µM,-3%
same,abundance human,[1],+++ (+++ > 75%)
same,inhibition at 10 µM,rr AR ag; read-out: % inh/act @ 10 µM,1%
same,inhibition at 30 µM,rr AR ag; read-out: % inh/act @ 30 µM,0%
same,EC50/IC50,rr AR ag; rr AR ag,> 30 µM
same,EC50/IC50,hr D1 ag; hr D1 ag,> 30 µM
same,inhibition at 10 µM,hr D1 ag; read-out: % inh/act @ 10 µM,6%
same,inhibition at 30 µM,hr D1 ag; read-out: % inh/act @ 30 µM,2%
same,"micronucleus (MNT), risk of clastogenicity",[2],did not indicate a risk
same,EC50/IC50,hr D1 antag; hr D1 antag,> 30 µM
same,inhibition at 10 µM,hr D1 antag; read-out: % inh/act @ 10 µM,-11%
same,inhibition at 30 µM,hr D1 antag; read-out: % inh/act @ 30 µM,-5%
same,EC50/IC50,hERG; hERG,> 30 µM
same,inhibition at 10 µM,hERG; human,-36%
same,inhibition at 30 µM,hERG; human,-25%
same,EC50/IC50,hr OpD; hr OpD,> 30 µM
same,inhibition at 10 µM,hr OpD; read-out: % inh/act @ 10 µM,22%
same,inhibition at 30 µM,hr OpD; read-out: % inh/act @ 30 µM,33%
same,EC50/IC50,hr Alpha2B; hr Alpha2B,> 30 µM
same,inhibition at 10 µM,hr Alpha2B; read-out: % inh/act @ 10 µM,13%
same,inhibition at 30 µM,hr Alpha2B; read-out: % inh/act @ 30 µM,16%
